{
  "source": "paper PMC10058894",
  "about": "“Bioactive C21 Steroidal Glycosides from Euphorbia kansui Promoted HepG2 Cell Apoptosis via the Degradation of ATP1A1 and Inhibited Macrophage Polarization under Co-Cultivation” (Molecules, 2023)",
  "key": {"ATP1A1": {"biological_target": "ATP1A1 (Homo sapiens, UniProt P05023)", "assay": "Western blot of ATP1A1 in Huh-7 cells", "format": "cell-based", "design": "endogenous in cells", "from_the_text": "2. The anti-proliferation of compound 5 on Huh-7 cells\nWe tested another hepatoma cell line (Huh-7) to validate effect of compound 5. L02 (normal hepatocytes), HepG2 and Hub-7 cells were used to discuss the effect of 5. […]\nof 5 on Huh-7 cell was (24.49±[…]) μM (Table S1). The morphology and apoptosis of the cells by reversed microscope and flow cytometry, respectively.\nSecond, the expression and phosphorylation of ATP1A1 were detected by Western blot analysis in L02, HepG2 and Huh-7 cells. Compared with L02 group, the expression of ATP1A1 was higher in HepG2 and Huh-7 cells, but there was no significant difference in the phosphorylation of ATP1A1 (Figure […]\nAt last, the effect of 5 on the expression and the phosphorylation of ATP1A1 in Huh-7 cells was […]\nthe phosphorylation of ATP1A1. The result was consistent with that observed in HepG2 cells (Figure […]\nTable S1 Cell viability of Huh-7 cell treated by compound 5\nFigure S2 Compound 5 inhibited the proliferation and the level of ATP1A1 protein in Huh-7 cells L5, low concentration of 5 (12.5 μmol-1 ); H5, high concentration of 5 (25 μmol-1). […] (B) Image of cell apoptosis in Huh-7 cells was detected by flow cytometry. The cells were double stained with Annexin V and PI. […] Data are expressed as the mean ± standard deviation (n=3). *p<0.05, **p<0.01, ***p<0.001 vs. the control group. […]"}, "HepG2 cells": {"tested_on": "HepG2 cells", "assay": "Scratch test and colony formation assay", "format": "cell-based", "conditions": "scratch 36 h, colony 7 days, 12.5 and 25 μmol", "protocol": "HepG2 cells (8 × 10^4 cells/well) were incubated in 24-well plates for 24 h. Cells were treated with a compound for 36 h after making a uniform straight from scratch with a 200 μL pipette tip. Cell motility was detected by measuring the wound closure distance after 36 h. Images were recorded using an inverted microscope (Olympus CK40, Shinjuku, Japan). HepG2 cells (600 cells/well) were incubated in 6-well plates and treated with the compound. One week later, visible colonies had formed. Then, the colonies were fixed with 4% polymethanol paraformaldehyde and stained with crystal violet (0.005%). The number of colonies was calculated by using a microscope."}, "Na+-K+-ATPase": {"biological_target": "T1, Na+-K+-ATPase (Homo sapiens, UniProt P05023)", "T1 construct": "endogenous in cells; host or cells: HepG2 (sonicated lysate supernatant)", "assay": "Na+-K+-ATPase enzyme activity detection kit", "format": "biochemical", "conditions": "HepG2 cells", "protocol": "HepG2 cells were collected in centrifuge tubes, and every 5 million cells were added to 1 mL reagent to sonicate the cells (power 20%, ultrasound 3S, interval 10 s, repeat 30 times). Then, the samples were centrifuged at 8000 rpm/min for 10 min at 4 °C. The supernatant was then collected and placed on ice for testing. The operation was performed according to the instructions of the Na^+-K^+-ATPase enzyme activity detection kit (Solarbio, Beijing, China)."}, "[1]": {"tested_on": "HepG2 and RAW264.7 co-cultivation", "assay": "Western blot in HepG2 and RAW264.7 co-cultivation", "format": "cell-based", "conditions": "25 μmol∙L−1, 48 h", "protocol": "L02, HepG2, and RAW264.7 cells were incubated in DMEM (Gibco, Carlsabad, CA, USA). Then, they were supplemented with 10% FBS (Gibco, Carlsbad, CA, USA) and 100 IU/mL streptomycin-penicillin (Solarbio, Beijing, China) in a CO2 chamber at 37 °C and 95% humidity. The morphology of the cells was observed using a reversed microscope (Olympus Corporation, Shinjuku, Japan) at × 200 magnifications. The Tissue Culture Plate Insert (LABSELECT, Beijing, China, Lot: 20421087A) chambers were used for HepG2 and RAW264.7-cell co-cultivation.\nProtein samples were prepared using a RIPA lysis buffer. The concentration of the protein was analyzed using a nucleic acid and protein microanalyzer (Molecular Devices, San Jose, CA, USA). SDS–PAGE was performed to separate the proteins, which were then electrotransferred onto a PVDF membrane. The membrane was incubated with antibodies at 4 °C overnight. Next, the membrane was washed and incubated with an HRP-conjugated secondary antibody (Beyotime, BeiJing, China). Finally, signals were detected by the ECL method (Beyotime, BeiJing, China) and analyzed using ImageJ software.\nRAW264.7 cells (1.5 × 10^5 cells/well) and HepG2 cells (4 × 10^5 cells/well) were incubated in a Tissue Culture Plate Insert (LABSELECT, Hangzhou, China) at 37 °C and 95% humidity. Raw264.7 cells were incubated in 12-well plates, and HepG2 cells were incubated in Transwell chambers. After 24 h, the cells were treated with the compound for 48 h. Then, the chamber was discarded, and RAW264.7 cells were washed twice with PBS and a fresh medium. Next, 1.5 mL/well and 100 μL/well FluoSpheresTM carboxylate (Invitrogen, Carlsbad, CA, USA) were added to the medium for 2 h in the dark. Cells were washed twice with PBS, harvested, and then resuspended in 0.5 mL PBS. Finally, the cells were measured by a FACSCalibur (Becton Dickinson, Franklin Lakes, NJ, USA). Data were analyzed using FlowJo software."}, "CETSA binding assay": {"assay": "CETSA binding assay", "conditions": "50 μmoL−1, western blot", "protocol": "Figure 4 Compound 5 promoted the endocytosis and degradation of ATP1A1. (A) HepG2 cells were treated with 12.5 μmol∙L^−1 or 25 μmol∙L^−1 5 for 48 h, and the lysosomal co-localization assay was performed with a confocal laser. (B) Cells exposed to 25 μmol∙L^−1 5 for 12 h or 24 h were detected by fluorescence staining. (C) 5 is depicted in red, and the chains of Na^+, K^+-ATPase α/β/γ are represented by light blue, cyan-blue, and magenta, respectively. The crystallography, atomic coordinates, and structure factors have been deposited in the Protein Data Bank, www.pdb.org (accessed on 1 February 2023) (PDB ID code 3KDP). (D) The CETSA binding assay of ATP1A1 and β-actin in the presence or absence of 5 (50 μmoL^−1) at different temperatures was detected by western blot. The temperature-dependent melting curves and the apparent aggregation temperature were calculated by nonlinear regression. Values represent the mean ± SEM (N = 3 replicates)."}},
  "data": [
    {"smiles": "C[C@H](O)[C@]1(O)CC[C@@]2(O)[C@]1(C)[C@H](OC(=O)/C=C/c1ccccc1)C[C@@H]1[C@@]3(C)CC[C@H](O[C@H]4C[C@H](O)[C@H](O)[C@@H](C)O4)CC3=CC[C@]12O", "note": "[Compound 5, Cynsaccatol L]", "values": [
      {"measurement": "level of ATP1A1 in Huh-7", "setting": "ATP1A1", "result": "reduced"},
      {"measurement": "cell migration and proliferation (scratch and colony formation)", "setting": "HepG2 cells", "result": "greatly inhibited"},
      {"measurement": "activity of NAK (Na+-K+-ATPase)", "setting": "Na+-K+-ATPase", "result": "inhibited"},
      {"measurement": "Bcl2 expression", "setting": "[1]; vs C and C1 groups", "result": "down-regulating"},
      {"measurement": "expression of cleaved-caspase 3, cleaved-caspase 8, LC3B, p62 and Bax", "setting": "[1]; vs C and C1 groups", "result": "significantly upregulate"},
      {"measurement": "expression of CD206 and ARG-1", "setting": "[1]; western blot", "result": "downregulated"},
      {"measurement": "denaturation temperature of β-actin (CETSA)", "setting": "CETSA binding assay", "result": "did not change"}
    ]}
  ]
}
